According to US4978783A, “2,6-dimethoxyhydroquinone-3-mercaptopropionic acid, 2,6-dimethoxyhydroquinone-3-mercaptoacetic acid, and antitumor use thereof” (National Science Council, priority 1990, dated 1990):
In brackets after ≈: the same amount, converted by molar mass. Entries after “also recorded” stand apart in the source; their conditions may differ.

Legend:
Solubility in H2O = assay type: physicochemical; conditions: for solubility: water; for solubility / solubility relative to DMQ (times higher): H2O, 27° C.; for solubility relative to DMQ (times higher): versus DMQ; for water-solubility, in words: compared with DMQ
[1] = background statement; cited from earlier work
[2] = test system: Colo-205 (colon adenocarcinoma) cells; experiment: Cytotoxicity assay against Colo-205 cells by the MTT method; assay type: cell-based, human; conditions: for Cytotoxicity index (CI): Table 1, 4 days; for CI: 5760 min; for CI value compared with DMQ, in words: versus DMQ
Experimental: Four different human cancer cell lines were used in this assay.
(§1) Cell suspensions were trypsinized and disaggregated. 3×10^3 cells were inoculated into each well in 0.18 ml of medium, to which 0.02 ml of drug was added. After 4 days of culture, 0.1 mg of 3-(4,5-dimethylthiazol-2-yl)-2,5-diphenyltetrazolium bromide (MTT) was added to each well and the plate incubated for 4 hours. The medium was then removed, 0.2 ml DMSO was added to each well and the plate agitated for 10 min. The optical density of each well was measured at a 545 nm test wavelength and a 690 nm reference wavelength using a Titertek Multiskan plate reader. Absorbance levers from drug tested cells were corrected against untreated control values.
(§2) *Cytotoxicity index (CI) = 100% × [1(O.D. of treated cells / O.D. o

[3] = background statement; cited from earlier work; remark: listed apart in the source
normal cells = conditions: background statement; cited from earlier work
Ehrlich ascites = conditions: DMQ in combination with L-ascorbic acid; cited from earlier work
[4] = test system: KB (oral epidermoid carcinoma) cells; experiment: Cytotoxicity against KB cells by the MTT method; assay type: cell-based, human; conditions: 5760 min
Text: (§3) A convenient cytotoxicity assay adopted in this example for the evaluation of antitumor activity is the MTT method disclosed in an article by Twentyman and Luscombe, entitled "A study of some variables in a tetrazolium dye (MTT) based assay for cell growth and chemosensitivity" Br. J. Cancer. 56, 279-285 (1987).
(§4) Four different human cancer cell lines were used in this assay. These were KB (oral epidermoid carcinoma); Colo-205 (colon adenocarcinoma); HeLa (cervical carcinoma); and HEP-2 (larynx epidermoid carcinoma).
as §1, with “Cells were taken from exponential phase cultures and were allowed to grow in a plate containing 96 wells using RPMI-1640 medium supplemented with 5% fetal bovine serum, 1 mM glutamine and antibiotics (penicillin and streptomycin) at 37° C. in a CO2 incubator. Cell” for “Cell”
as §2

[5] = test system: HeLa (cervical carcinoma) cells; experiment: Cytotoxicity against HeLa cells by the MTT method; assay type: cell-based, human; conditions: 5760 min
Text: as §3, §4
as §1, with “Cells were taken from exponential phase cultures and were allowed to grow in a plate containing 96 wells using RPMI-1640 medium supplemented with 5% fetal bovine serum, 1 mM glutamine and antibiotics (penicillin and streptomycin) at 37° C. in a CO2 incubator. Cell” for “Cell”
as §2

human tumor cell lines = experiment: Cytotoxicity against four/several human tumor cell lines, (MTT method); assay type: cell-based; conditions: for cytotoxicity at 100 µg/mL: 96 h, each alone, DMQ-MP 1 μg/ml or D-isoascorbic acid 100 μg/ml, read-out: cytotoxicity index (CI) value, summary; for cytotoxicity compared with DMQ, in words: drug without activator, versus DMQ; for cytotoxicity in combination with L-ascorbic acid or D-isoascorbic acid, in words: several human cancer cell lines, in vitro
Text: as §3, §4
as §1, with “Cells were taken from exponential phase cultures and were allowed to grow in a plate containing 96 wells using RPMI-1640 medium supplemented with 5% fetal bovine serum, 1 mM glutamine and antibiotics (penicillin and streptomycin) at 37° C. in a CO2 incubator. Cell” for “Cell”

[6] = test system: HEP-2 (larynx epidermoid carcinoma) cells; experiment: Cytotoxicity against HEP-2 cells by the MTT method; assay type: cell-based, human; conditions: 5760 min
Text: as §3, §4
as §1, with “Cells were taken from exponential phase cultures and were allowed to grow in a plate containing 96 wells using RPMI-1640 medium supplemented with 5% fetal bovine serum, 1 mM glutamine and antibiotics (penicillin and streptomycin) at 37° C. in a CO2 incubator. Cell” for “Cell”
as §2

[7] = Hydrophobicity (statement); assay type: physicochemical; conditions: to gain passage into the cell via the cell membrane
[8] = cited from earlier work
[9] = Table 2, D-isoascorbic acid 100 μg/ml alone
[10] = Table 3, DMQ-MA 1 μg/ml + L-ascorbate 100 μg/ml
[11] = Table 3, DMQ-MA 1 μg/ml, no activator
[12] = Table 3, L-ascorbate 100 μg/ml alone
[13] = Table 2, DMQ-MP 1 μg/ml + D-isoascorbic acid 100 μg/ml
[14] = Table 2, DMQ-MP 1 μg/ml, no activator

## COC1=CC(=O)C=C(OC)C1=O [DMQ, 2,6-dimethoxy-p-benzoquinone]
Solubility in H2O
  solubility: 74 µg/mL (≈ 0.44 mM)
[1]
  solubility in water, in words: poor solubility in water
[2]; drug 1.0 μg/ml, L-ascorbate 100 μg/ml
  Cytotoxicity index (CI): 76.6%
[2]; drug 10 μg/ml, no L-ascorbate
  Cytotoxicity index (CI): 87.9%
[3]
  precipitation from the blood, in words: precipitate from the blood easily
Normal cells
  cytotoxicity to normal cells, in words: certain degree of cytotoxicity; also recorded: destruction of normal cells
Ehrlich ascites
  effect in Ehrlich ascites-bearing mice, in words: effective

## O=C1O[C@H]([C@H](O)CO)C(O)=C1O [D-isoascorbic acid, reference compound]
[4]; [9]
  CI: 11%
[5]; [9]
  CI: 5%
[2]; [9]
  CI: 24%
Human tumor cell lines; four human tumor cell lines
  cytotoxicity at 100 µg/mL: < 25%
[6]; [9]
  CI: 13%

## COc1cc(O)c(SCC(=O)O)c(OC)c1O [DMQ-MA, 2,6-dimethoxyhydroquinone-3-mercaptoacetic acid]
Solubility in H2O
  solubility relative to DMQ (times higher): about 70 times
  water-solubility, in words: a lot more water-soluble than DMQ; also recorded: significantly improved water-solubility in comparison with DMQ
  solubility: 5000 µg/mL (≈ 19.2 mM)
[4]; [10]
  CI: 89%
[4]; [11]
  CI: 0%
[5]; [10]
  CI: 79%
[5]; [11]
  CI: 3%
[2]; drug 10 μg/ml, L-ascorbate 1.0 μg/ml (so in the source)
  Cytotoxicity index (CI): 22.1%
[2]; [10]
  CI: 86%
[2]; [11]
  CI: 0%
[2]; drug 10 μg/ml
  CI value compared with DMQ, in words: significantly lower than DMQ
Human tumor cell lines
  cytotoxicity compared with DMQ, in words: less cytotoxic
  cytotoxicity in combination with L-ascorbic acid or D-isoascorbic acid, in words: greatly augmented; also recorded: act synergistically
[7]
  hydrophobicity, in words: a certain degree of hydrophobicity
[6]; [10]
  CI: 86%
[6]; [11]
  CI: 2%

## O=C1O[C@H]([C@@H](O)CO)C(O)=C1O [L-ascorbate, reference compound]
[4]; [12]
  CI: 0.4%
[5]; [12]
  CI: 2%
[2]; [12]
  CI: 5%
[8]
  concentration of L-ascorbate in the human body: ≤ 1 mM
[6]; [12]
  CI: 9%

## COc1cc(O)c(SCCC(=O)O)c(OC)c1O [DMQ-MP, 2,6-dimethoxyhydroquinone-3-mercaptopropionic acid]
Solubility in H2O
  solubility relative to DMQ (times higher): about 70 times
  water-solubility, in words: a lot more water-soluble than DMQ; also recorded: significantly improved water-solubility in comparison with DMQ
  solubility: 5330 µg/mL (≈ 19.4 mM)
[4]; [13]
  CI: 79%
[4]; [14]
  CI: 10%
[5]; [13]
  CI: 88%
[5]; [14]
  CI: 11%
[2]; drug 10 μg/ml, no L-ascorbate
  Cytotoxicity index (CI): 43.5%
[2]; [13]
  CI: 78%
[2]; [14]
  CI: 17%
[2]; drug 10 μg/ml
  CI value compared with DMQ, in words: significantly lower than DMQ
Human tumor cell lines; four human tumor cell lines
  cytotoxicity at 100 µg/mL: < 25%
Human tumor cell lines; DMQ-MP 1 μg/ml in combination with D-isoascorbic acid 100 μg/ml, four human tumor cell lines, 5760 min
  CI values, summary: 77-88%
Human tumor cell lines
  cytotoxicity compared with DMQ, in words: less cytotoxic
  cytotoxicity in combination with L-ascorbic acid or D-isoascorbic acid, in words: greatly augmented; also recorded: act synergistically
[7]
  hydrophobicity, in words: a certain degree of hydrophobicity
[6]; [13]
  CI: 77%
[6]; [14]
  CI: 13%
